Test results from article PMC8010149, “A Therapeutic Strategy to Combat HIV-1 Latently Infected Cells With a Combination of Latency-Reversing Agents Containing DAG-Lactone PKC Activators” (Frontiers in Microbiology, 2021).
pEC50: −log10 of the molar value.

What was measured:
A3.01 cells = experiment: Active caspase-3 by flow cytometry in A3.01 cells; format: cell-based; settings: 10 μM, 24 h
[1] = tested on: HIV-1 latently infected ACH-2 cells; experiment: Intracellular HIV-1 p24 by flow cytometry in ACH-2 cells; format: cell-based; settings: 24 h
Description: (§1) The reactivation of HIV-1 from latently infected cells was determined by intracellular p24 protein expression and quantification of p24 antigen in the supernatant (ACH-2 and U1 cells), or by changes in intracellular green fluorescent protein (GFP) expression (J-Lat 10.6 cells). J-Lat ([Jordan et al., 2003]), ACH-2, or U1 cells (5 × 10^5 cells/ml) were seeded in 96-well plates and incubated with different drug concentrations for 24 h to collect the cells. The supernatant was collected after 48 h. The increase in supernatant p24 antigen levels was measured using a Lumipulse G1200 (FUJIREBIO, Tokyo, Japan). J-Lat cells (5 × 10^5 cells/ml) were placed in 48-well plates and incubated with different drug concentrations for 24 h. Intracellular p24 protein expression and GFP-positive cells were analyzed by flow cytometry.
(§2) The amount of intracellular HIV-1 p24 and the active form of caspase-3 were determined by flow cytometry, as previously described ([Matsuda et al., 2015], [2019]). In brief, ACH-2 and U1 cells (2.5 × 10^5 cells/ml) were fixed with 1% paraformaldehyde/PBS for 20 min and permeabilized with Flow Cytometry Perm Buffer (TONBO Biosciences, San Diego, CA, United States). After 5 min of incubation at room temperature, the cells were stained with FITC anti-HIV-1 p24 (24-4) monoclonal antibody (mAb; Santa Cruz Biotechnology, Dallas, TX, United States) or Alexa Fluor 647-conjugated anti-active caspase-3 (C92-605) mAb (BD Pharmingen, San Diego, CA, United States) for 30 min on ice. For T cell activation and exhaustion marker staining, PBMCs from healthy donors separated by the above density gradient centrifugation method were incubated with fixable viability stain Ghost Dye 780 (TONBO Biosciences) for 30 min on ice. The cells were then stained with Brilliant Violet 510 anti-human CD3 (UCHT1) mAb (BioLegend), FITC anti-human CD4 (RPA-T4) mAb (TONBO Biosciences), PE-Cy7 anti-human CD8a (RPA-T8) mAb (TONBO Biosciences), PerCP-Cy5.5 anti-human CD38 (HB-7) mAb (BioLegend), PE anti-human CD69 (FN50) mAb (BioLegend), or Alexa Fluor 647 anti-human CD279/PD-1 (EH12.1) mAb (BD Biosciences, San Jose, CA, United States) for 30 min on ice. Next, the cells were analyzed using BD FACSVerse (BD Biosciences). In the analysis, unstained cells were used as a negative control to set the gating for each experiment. The collected data were analyzed using FlowJo software (Tree Star, San Carlos, CA, United States).

[2] = tested on: HIV-1 latently infected U1 cells; experiment: Intracellular HIV-1 p24 by flow cytometry in U1 cells; format: cell-based; settings: 24 h
Description: as §1, §2

[3] = tested on: PBMCs from healthy donors; experiment: Acute cytotoxicity in primary cells (fixable viability dye, flow cytometry); format: cell-based
Description: For T cell activation and exhaustion marker staining, PBMCs from healthy donors separated by the above density gradient centrifugation method were incubated with fixable viability stain Ghost Dye 780 (TONBO Biosciences) for 30 min on ice. […] Next, the cells were analyzed using BD FACSVerse (BD Biosciences). In the analysis, unstained cells were used as a negative control to set the gating for each experiment. The collected data were analyzed using FlowJo software (Tree Star, San Carlos, CA, United States).
The ratio of living cells was calculated for fixable viability dye negative cell populations by flow cytometry. Data are shown as means ± SDs of three independent experiments.

[4] = Cytotoxicity of LRAs in U937 cells; format: cell-based; settings: human, day 7
Description: To determine the cytotoxicity of LRAs, A3.01, and U937 cells (5 × 10^5 cells/ml), which are the parental cells for ACH-2 and U1 cells, respectively, were cultured in the presence or absence of LRAs. After 7 days, cell viability was examined using the Cell Counting Kit-8 assay (Dojindo, Kumamoto, Japan) according to the manufacturer’s instructions. The numbers of living cells after drug treatment were measured and compared to those in untreated cells and are presented as a percentage relative to the control.

BALB/c mice = experiment: In vivo acute toxicity (24 h) in BALB/c mice; settings: intraperitoneal, 100 μg/kg–10 mg/kg
Excerpt: BALB/c mice were purchased from Charles River Laboratories Japan, Inc. (Yokohama, Japan). Female mice at 5 weeks of age were used for the experiments. The mice were housed and monitored in our animal research facility according to the institutional guidelines. All experimental procedures and protocols were approved by the Institutional Animal Care and Use Committee of Kumamoto University.

[5] = tested on: HIV-1 latently infected U1 cells; experiment: HIV-1 latency reversal, p24 antigen in supernatant, U1 cells; format: cell-based; settings: Human immunodeficiency virus 1, 48 h
Description: as §1

J-Lat 10.6 cells = format: cell-based, HIV-1
Description: The reactivation of HIV-1 from latently infected cells was determined by intracellular p24 protein expression and quantification of p24 antigen in the supernatant (ACH-2 and U1 cells), or by changes in intracellular green fluorescent protein (GFP) expression (J-Lat 10.6 cells). […] The supernatant was collected after 48 h. The increase in supernatant p24 antigen levels was measured using a Lumipulse G1200 (FUJIREBIO, Tokyo, Japan). […] Intracellular p24 protein expression and GFP-positive cells were analyzed by flow cytometry.
Differences between groups were analyzed for statistical significance using unpaired t-tests. Statistical significance was set at p < 0.05. Statistical analyses were performed using GraphPad Prism version 8 (GraphPad Software, La Jolla, CA, United States). CompuSyn software, based on the quantitative analysis of dose-effect relationships between multiple drugs by Chou and Talalay, was utilized to determine the synergism or antagonism of drug combinations ([Chou and Talalay, 1984]). To confirm synergy, this software calculates combination index (CI) values, which further assist in determining the nature of the combination compared to single drug effects. A CI value <1 indicates synergistic effects.

U937 cells = experiment: Active caspase-3 by flow cytometry in U937 cells; format: cell-based; settings: 10 μM, 24 h
ACH-2 cells = experiment: Active caspase-3 by flow cytometry in ACH-2 cells; format: cell-based; settings: 10 µM, 24 h
Description: as §2, with “The cells were then stained with Brilliant Violet 510 anti-human CD3 (UCHT1) mAb (BioLegend), FITC anti-human CD4 (RPA-T4) mAb (TONBO Biosciences), PE-Cy7 anti-human CD8a (RPA-T8) mAb (TONBO Biosciences), PerCP-Cy5.5 anti-human CD38 (HB-7) mAb (BioLegend), PE anti-human CD69 (FN50) mAb (BioLegend), or Alexa Fluor 647 anti-human CD279/PD-1 (EH12.1) mAb (BD Biosciences, San Jose, CA, United States) for 30 min on ice.” left out, “In the analysis, unstained cells were used as a negative control to set the gating for each experiment.” left out

[6] = tested on: CD4+ or CD8+ primary T cells; experiment: T cell activation, CD69 expression on CD4+ or CD8+ primary T cells; format: cell-based, human; settings: 1 μM, 24 h, compared to prostratin and PEP005
Description: as §2, with “The cells were then stained with Brilliant Violet 510 anti-human CD3 (UCHT1) mAb (BioLegend), FITC anti-human CD4 (RPA-T4) mAb (TONBO Biosciences), PE-Cy7 anti-human CD8a (RPA-T8) mAb (TONBO Biosciences), PerCP-Cy5.5 anti-human CD38 (HB-7) mAb (BioLegend), PE anti-human CD69 (FN50) mAb (BioLegend), or Alexa Fluor 647 anti-human CD279/PD-1 (EH12.1) mAb (BD Biosciences, San Jose, CA, United States) for 30 min on ice.” left out, “In the analysis, unstained cells were used as a negative control to set the gating for each experiment.” left out

[7] = tested on: HIV-1 latently infected ACH-2 cells; experiment: HIV-1 latency reversal, p24 antigen in supernatant, ACH-2 cells; format: cell-based; settings: Human immunodeficiency virus 1, ACH-2, 48 h
Description: as §1

CCCC(CCC)C(=O)OCC1(CO)CC(=C(C)C)C(=O)O1 (stereo not shown) [YSE028]
caspase-3 activation (A3.01 cells): 5.81% | intracellular p24-positive live cells (flow cytometry quadrant) ([1]; 0.1 µM): 0.889 | intracellular p24-positive live cells (flow cytometry quadrant) ([1]; 1 µM): 62 | intracellular p24-positive live cells (flow cytometry quadrant) ([1]; 10 µM): 79.1 | intracellular p24-positive live cells (flow cytometry quadrant) ([2]; 0.1 µM): 0.239 | intracellular p24-positive live cells (flow cytometry quadrant) ([2]; 1 µM): 1.13 | intracellular p24-positive live cells (flow cytometry quadrant) ([2]; 10 µM): 36.3 | toxicity of LRAs in combination in primary cells ([3]; YSE028 10 μM with JQ1 1 μM, Supplementary Figure S3A): did not cause increased toxicity in combination | acute toxicity in primary cells ([3]; up to 100 μM, 24 h): did not show acute toxicity | CC50 at 7 days [4]: > 100000 nM | survival (BALB/c mice): all of them survived | pEC50 [5]: 5.74 | number of GFP+ cells (J-Lat 10.6 cells; J-Lat 10.6 cells, 100–400 nM, 24 h): 5.8% | LRA activity in the presence of 10% mouse serum versus 10% FBS (J-Lat 10.6 cells; J-Lat 10.6 cells, 24 h, GFP-positive cells): drastically decreased | reactivation after short-term exposure (J-Lat 10.6 cells; J-Lat cells, exposure 1 h, wash-out, analysed after 24 h): successfully reactivated | caspase-3 activation (U937 cells): 6.35% | caspase-3 activation (ACH-2 cells): 17.85% | CD69+ cells in primary T cells (global T cell activation) [6]: less effect | pEC50 [7]: 6.06
